# According to US20220409581A1, “METHODS AND COMPOSITIONS FOR TREATMENT OF SOLID TUMORS USING F16 ISOINDOLE SMALL MOLECULES” (Nova Southeastern University, priority 2019, published 2022):
# “Also recorded” adds a separate entry of the source.
# Key:
# U87MG cells [1] = test: MTT cytotoxicity assay; format: cell-based; details: Homo sapiens, U-87 MG, 24 h, read-out: IC50 (50% reduction of U87MG cell viability)
# Method: The cell viability was assessed using a 3-(4,5-dimethylthiazol-2-yl)-2, 5-diphenyltetrazolium bromide (MTT) assay (Sigma-Aldrich, St. Louis, Mo., USA), and trypan blue dye exclusion method (TBDE). For the MTT assay, U87MG cells were cultured in a 96 well-plate at a density of 5×10^3 per well and incubated at 37° C. under 5% CO2 for 24 h. Then, the cells were treated with different concentrations of F16 (0.1-100 μM) and TMZ (0.1-500 μM) for 24 h. At the end of treatment, the old medium was aspirated, and 10 μL of MTT (0.5 mg/mL in PBS) was added to each well and the cells were incubated at 37° C. for an additional 3 h. Finally, the MTT solution was removed, and 100 μL of dimethyl sulfoxide (DMSO) was added to each well. The plate was gently rotated on an orbital shaker for 10 min to completely dissolve the precipitation and the absorbance was measured at 570 nm using Microplate Reader (VersaMax, Molecular Devices, Sunnyvale, Calif., USA). For the TBDE method, U87MG cells were cultured in a 24 well-plate at a density of 5×10^4 per well and incubated at 37° C. under 5% CO2 for 48 h. Then, the cells were treated with different concentrations of F16 (0.1-100 μM) and TMZ (10-1000 μM). […] The viable cells were counted with a Bio-Rad TC20™ Automated Cell Counter (Hercules, Calif., USA)
# U87MG cells [2] = test: Trypan blue dye exclusion method (TBDE); format: cell-based, human; details: F16 100 μM, TMZ 1000 μM
# Method: The cell viability was assessed using a 3-(4,5-dimethylthiazol-2-yl)-2, 5-diphenyltetrazolium bromide (MTT) assay (Sigma-Aldrich, St. Louis, Mo., USA), and trypan blue dye exclusion method (TBDE). For the MTT assay, U87MG cells were cultured in a 96 well-plate at a density of 5×10^3 per well and incubated at 37° C. under 5% CO2 for 24 h. Then, the cells were treated with different concentrations of F16 (0.1-100 μM) and TMZ (0.1-500 μM) for 24 h. At the end of treatment, the old medium was aspirated, and 10 μL of MTT (0.5 mg/mL in PBS) was added to each well and the cells were incubated at 37° C. for an additional 3 h. Finally, the MTT solution was removed, and 100 μL of dimethyl sulfoxide (DMSO) was added to each well. The plate was gently rotated on an orbital shaker for 10 min to completely dissolve the precipitation and the absorbance was measured at 570 nm using Microplate Reader (VersaMax, Molecular Devices, Sunnyvale, Calif., USA). For the TBDE method, U87MG cells were cultured in a 24 well-plate at a density of 5×10^4 per well and incubated at 37° C. under 5% CO2 for 48 h. Then, the cells were treated with different concentrations of F16 (0.1-100 μM) and TMZ (10-1000 μM). After 24, 48, and 72 h of treatments, an aliquot (50 μL) of the cell suspension from each treatment was mixed with 1:1 (v/v) volume of 0.4% trypan blue. The viable cells were counted with a Bio-Rad TC20™ Automated Cell Counter (Hercules, Calif., USA)
# U87MG cells [3] = test: Trans-well migration assay; format: cell-based, human; details: 24 h; F16 20 μM, TMZ 400 μM
# Method: The migration ability of U87MG cell was determined using both scratch and trans-well assays. For the scratch assay, monolayer of U87MG cells was grown on 6-well plates close to 80% confluency. Using a sterile 200 μL tip, a single straight line scratch was made in each well. The wells were washed with phosphate-buffered saline (PBS) and refilled with growth medium containing various concentrations of F16 (0.1-20 μM) and TMZ (10-400 μM). The images were captured using Leica microscope at 12 h and 24 h post-scratch. For the trans-well migration assay, 6.5 mm trans-well plates polycarbonate membrane inserts (Corning, N.Y., USA) with 8 μm pore size were used. After an initial equilibrium period, 5×10^4 cells suspended in 100 μL basal medium without FBS were added to the upper compartment of the trans-well inserts and exposed to different concentrations of F16 (0.1-20 μM) and TMZ (10-400 μM). The lower chamber was filled with 600 μL of EMEM medium supplemented with 10% fetal bovine serum. Then, trans-well plates were incubated at 37° C. under 5% CO2 for 24 h to allow for the migration of U87MG cells across the porous membrane. […] Five different fields per well were captured with a Leica microscope (DMI 3000 B; IL, USA) using 10× magnification, and the number of cells that penetrated the membrane was counted using ImageJ software (NIH Image, Bethesda, Md., USA).
# [4] = test system: U87MG derived xenograft tumor; format: in vivo
# Method: Lauderdale, Fla. Animals were subcutaneously injected into the right flank of each mouse, with 4×10^6 of U87MG glioblastoma cancer cells suspended in 100 μL of PBS mixed with Matrigel (BD Biosciences). […] The experimental mice were treated once in every 2 days for the period of 16 days. At the end of the treatment, the tumors were isolated and then the tumor length (L) and width (W) were measured to calculate the tumor volume (TV) according to the formula: TV=1/2×(L×W^2). To determine the tumor inhibitory effects of F16 and TMZ treatments, the inhibition ratio (IR) was calculated using the formula: […]
# At the end of the treatment, all the animals in the control and experimental groups were sacrificed and tumors were excised and weighed.
# [5] = rats and monkeys; cited from earlier work
# [6] = test system: Glioblastoma multiforme (GBM); details: human, in vivo; cited from earlier work
# [7] = Tolerability / toxicity study; details: i.p. twice a week for 4 weeks
# Method: For tolerability study, 8-10 weeks old male BALB/c mice weighing approximately 25 g were used (Charles Rivers, US). […] All animals were housed in pathogen-free ventilated cages under environmentally controlled conditions of humidity and temperature (22° C.; 12:12 h light-dark cycle) with free access to pathogen-free food and water. All animal care and experiments were performed in accordance with the guidelines and approval of the Institutional Animal Care and Use Committee (IACUC) of Nova Southeastern University (NSU), Ft. Lauderdale, Fla.
# TMZ (50 mg/kg) was dissolved in 10% DMSO+90% phosphate-buffered saline (PBS). All drugs were prepared fresh before the scheduled injection [21]. The total volume of injection was 100 μL/mouse for all experiments which was administered intraperitoneally.
# For tolerability studies, BALB/c mice were randomly assigned to 4 different treatment groups (FIG. 15: Table 1). At the end of the treatment period, blood samples from all the mice were collected and sent to the Department of Comparative Pathology at the University of Miami (City of Miami, Fla.) to analyze the hematological and biochemical parameters.
# Mice injected with KP were used as controls. All drugs were administered as i.p. injections twice a week for 4 weeks. Independent toxicity evaluations, serum biochemistry, post-mortem gross examination, and histopathological examination of major organs were performed at Comparative Pathology Department at the University of Miami, Fla.
# [8] = test system: U87MG-luc intracranial xenograft; test: Intracranial glioblastoma xenograft model with bioluminescence imaging
# Method: For tolerability study, 8-10 weeks old male BALB/c mice weighing approximately 25 g were used (Charles Rivers, US). For intracranial study, 8-10 weeks old female athymic nude (Nu/Nu) mice weighing approximately 25 g were used (Taconic Biosciences, US). All animals were housed in pathogen-free ventilated cages under environmentally controlled conditions of humidity and temperature (22° C.; 12:12 h light-dark cycle) with free access to pathogen-free food and water.
# F16 (100 mg/kg) was dissolved in a 10% DMSO+90% KolliphorEL (KP). TMZ (50 mg/kg) was dissolved in 10% DMSO+90% phosphate-buffered saline (PBS). All drugs were prepared fresh before the scheduled injection [21]. The total volume of injection was 100 μL/mouse for all experiments which was administered intraperitoneally.
# For intracranial study, the glioblastoma xenograft model was developed using athymic nude (Nu/Nu) mice. Briefly, mice were placed under general anesthesia (intraperitoneal injection of 100 mg/kg Ketamine and 10 mg/kg Xylazine) and were positioned in the stereotaxic device. A median incision of ˜1 cm was made, and a burr hole was drilled into the right striatum of the skull (1.0 mm forward and 2.0 mm lateral to the bregma). Subsequently, U87MG cells expressing the luc reporter gene (2×10^5 cells in 3 μL PBS) was injected using a 10-μl Hamilton syringe at the rate of 1 μL/min at a depth of 3 mm. Once injection was completed, the needle was kept in place for 2 minutes and then slowly removed, and the hole was sealed with a sterile bone wax. The incision was closed, and triple antibiotic ointment was applied. One week after tumor cell transplantation, mice were divided randomly into five groups (n=5 in each group): 1) control treated with DMSO in PBS, 2) control treated with DMSO in KP, 3) treated with F16 (100 mg/kg), 4) treated with temozolomide (50 mg/kg) and 5) treated with F16 (100 mg/kg) and 3 h later treated with temozolomide (50 mg/kg). One more group with no tumor implant was added to the study as a negative control (n=5). The experimental mice were treated twice per week for 3 weeks.
# Bioluminescence imaging (BLI) was used to assess and confirm tumor growth in intracranial xenograft. BLI was carried out in vivo using the Bruker Xtreme which is a sensitive optical X-ray machine designed for preclinical in vivo study based on BLI concept. Briefly, mice were injected intraperitoneally with D-luciferin (Sigma) dissolved in saline at a dose of 150 mg/kg body weight. Immediately after the injection, mice were anesthetized by isoflurane and series of bioluminescent images was acquired with 3-minutes acquisition intervals for approximately 20 minutes, by which time, the luciferin had been washed out. The image with the peak BLI intensity was used for quantification in units of photon counts.
# recurrent GBM = details: cited from earlier work
compound,measurement,setting,value
"Cn1nnc2c(C(N)=O)ncn2c1=O [TMZ, Temozolomide, reference compound]",IC50,U87MG cells [1],430 µM
same,maximum percentage of U87MG cells death,U87MG cells [2]; 24 h,68%
same,maximum percentage of U87MG cells death,U87MG cells [2]; 48 h,95%
same,maximum percentage of U87MG cells death,U87MG cells [2]; 72 h,82%
same,U87MG cells trapped in the upper compartment as compared to untreated cells,U87MG cells [3],About 80%
same,suppression of tumor growth,"[4]; i.p., once every 2 days for 16 days, F16 100 mg/kg, TMZ 50 mg/kg, combination of both",53%
same,signs of toxicity / tolerability,"[4]; mouse, in vivo",symptoms of toxicity
same,levels of TMZ in the brain as % of the plasma concentration,[5],30-40%
same,TMZ treated patients who develop significant toxicity,[6],15-20%
same,ALT level (liver function),[7],Significant elevation; also recorded: significantly elevating
same,BUN levels (kidney function),[7],No significant changes
same,RBC,[7],slight increase
same,WBC counts,[7],significant increase
same,hematocrit,[7],slight increase
same,body weight,[8]; compared to mice treated with vehicles (PBS/KP),No significant change
same,tumor inhibition,[8]; intracranial xenograft model,99%
same,condition of excised brains,"[8]; mouse, in vivo",fragile and damaged
same,mice that lived until day 50 post implantation,"[8]; mouse, in vivo",60%
same,median survival,"[8]; vehicles-PBS 34 days, vehicles-KP 36 days",47 days
Bevacizumab [BVZ],overall survival (OS),recurrent GBM; patients with (recurrent) GBM,no improvement; also recorded: failed to improve
same,progression free survival (PFS),recurrent GBM; recurrent GBM,did improve
